PMC6820371, “Terbium-161 for PSMA-targeted radionuclide therapy of prostate cancer” (European Journal of Nuclear Medicine and Molecular Imaging, 2019)

Assays:
PC-3 PIP tumor cells [1] = assay: Cell viability assay (MTT assay); type: cell-based, human; conditions: DTPA complexes, 0.01–20 MBq/mL; marginal reduction at higher concentration
Method: The detailed methods of these studies, including dosimetric calculations, are described in the Supplementary material. The results were analyzed for statistical significance by a two-way ANOVA with Sidak’s multiple comparison post-test using Graph Pad Prism (version 7).
Methods: Tumor cell viability was assessed using a 3-(4,5-dimethylthiazol-2-yl)-2,5-diphenyltetrazolium bromide (MTT) assay as described by Mosmann. PC-3 PIP tumor cells (2500 cells in 200 μL RPMI medium with supplements) were seeded in 96-well plates and incubated overnight (37°C; 5% CO2) to allow adhesion of the tumor cells. The supernatants were removed and the tumor cells were washed once with 200 μL PBS. Afterwards, the tumor cells were incubated in 200 μL RPMI medium (without supplements) containing ^161Tb-PSMA-617 or ^177Lu-PSMA-617 (0.01‒20 MBq/mL), respectively, or just RPMI medium without addition of radioligands. PSMA-negative PC-3 flu tumor cells were also treated with these radioligands under the same experimental conditions using the same concentration range. Additional cell viability assays were performed with PC-3 PIP tumor cells incubated with RPMI medium (without supplements) containing ^161Tb-diethylenetriaminepentaacetic acid (DPTA) or ^177Lu-DTPA (0.01 – 20 MBq/mL). After 4 h incubation (37 °C; 5% CO2), the tumor cells were washed once with 200 μL PBS, followed by the addition of 200 μL of RPMI medium (with supplements) to each well. The tumor cells were left to grow for 6 days under standard cell culture conditions (37 °C, 5% CO2). At Day 6 after treatment, MTT reagent (5 mg/mL in PBS, 30 μL per well) was added to each well to allow the formation of dark-violet formazan crystals within 4 h incubation. The crystals were dissolved by the addition of dimethyl sulfoxide to determine the absorbance at 560 nm using a microplate reader (Victor X3, Perkin Elmer). Cell viability was quantified by expressing the absorbance of the test samples as percentage of the absorbance of control (untreated) cell samples which was set to 100%. Statistical analysis was performed using a two-way ANOVA with Sidak’s multiple comparison post-test in Graph Pad Prism (version 7).

PC-3 PIP tumor cells [2] = assay: Cell survival assay (clonogenic assay); type: cell-based, human; conditions: DTPA complexes, 0.01–10 MBq/mL; marginal reduction at higher concentration
[3] = system: PSMA-positive PC-3 PIP tumor cells; assay: Tumor cell uptake and internalization; type: cell-based, human; conditions: 2–4 h incubation
[4] = system: PSMA-negative PC-3 flu tumor cells; assay: Tumor cell uptake and internalization; type: cell-based; conditions: 2–4 h incubation
[5] = system: mice inoculated with PC-3 PIP cells; assay: Additional therapy study (injection 2 days after tumor cell inoculation); type: in vivo; conditions: for Median Survival: control 26 days
Method: The day of the treatment, two days after tumor cell inoculation, was defined as Day 0 of the study (Table S7).
Endpoint criteria: The mice were monitored until they reached an endpoint (definition of endpoints, see Chapter 13) or over the whole period of 38 days when the study was terminated.
Data analysis of the therapy study: The tumor growth delay indices (TGDI2 and TGDI5) were calculated as reported in the Methods of the main manuscript. The median survival was determined using GraphPad Prism software (version 7).

[6] = design: method as in Benešová et al. 2018 [4]; conditions: saline, in the presence of l-ascorbic acid, up to 24 h; ref Benešová et al. 2018 [4]; cited from earlier work
[7] = design: method as in Benešová et al. [4]; conditions: PBS pH 7.4; ref Benešová et al. [4]; cited from earlier work
[8] = system: PC-3 PIP tumor-bearing mice; design: method as in PMID 29684274; conditions: 5.0 MBq; cited from earlier work

In the case of `O=C([O-])CN(CCN(CC(=O)[O-])CC(=O)[O-])CCN(CC(=O)[O-])CC(=O)[O-].[161Tb+3]` [^161Tb-DPTA, ^161Tb-diethylenetriaminepentaacetic acid, reference compound], the “Viability of PC-3 PIP tumor cells” value (PC-3 PIP tumor cells [1]) is reported as “not affected” and the “Survival of PC-3 PIP tumor cells” value (PC-3 PIP tumor cells [2]) is reported as “not affected”.

For `O=C([O-])CN(CCN(CC(=O)[O-])CC(=O)[O-])CCN(CC(=O)[O-])CC(=O)[O-].[177Lu+3]` [^177Lu-DTPA, reference compound], the “Viability of PC-3 PIP tumor cells” value (PC-3 PIP tumor cells [1]) was “not affected” and the “Survival of PC-3 PIP tumor cells” value (PC-3 PIP tumor cells [2]) was “not affected”.

With `O=C([O-])CN1CCN(CC(=O)[O-])CCN(CC(=O)NCC2CCC(C(=O)N[C@@H](Cc3ccc4ccccc4c3)C(=O)NCCCC[C@H](NC(=O)N[C@@H](CCC(=O)O)C(=O)O)C(=O)O)CC2)CCN(CC(=O)[O-])CC1.[177Lu+3]` (stereo partly shown) [^177Lu-PSMA-617, reference compound] the “PC-3 PIP tumor cell uptake” value [3] was 49–58%, the Internalized fraction ([3]; PC-3 PIP) was 9–12% and the “Uptake in PC-3 flu tumor cells” value [4] was less than 0.5%. It also gave a First mouse euthanized ([5]; 2.5 MBq) of 20 days, a TGDI2 ([5]; 2.5 MBq) of 0.8 ± 0.4 and a TGDI5 ([5]; 2.5 MBq) of 1.0 ± 0.3. For the same compound, the “Median Survival” value ([5]; 2.5 MBq) was 27 days, the Last mouse euthanized ([5]; 2.5 MBq, study end Day 38) was “study end” and the First mouse euthanized ([5]; 5.0 MBq) was 24 days. For the same compound, the TGDI2 ([5]; 5.0 MBq) was 1.0 ± 0.4, the “Median Survival” value ([5]; 5.0 MBq) was 30 days and the Last mouse euthanized ([5]; 5.0 MBq, study end Day 38) was “study end”. The Survival ([5]; 10 MBq) was “survived until the end of the study at Day 38”, the “Cases in which tumors started to regrow” value ([5]; 10 MBq, from about Day 20 on) was 50% and the First mouse euthanized ([5]; 10 MBq, study end Day 38) was “Study end”. The Last mouse euthanized ([5]; 10 MBq, study end Day 38) was “study end”, the “Stability (intact radioligand)” value [6] was no less than 98% and the “n-octanol/PBS distribution coefficient (logD value)” value [7] was “–4.4 ± 0.1”. The Last mouse euthanized [8] was 40 days, the Median Survival [8] was 32 days and the TGDI2 [8] was 2.1 ± 0.3.
